Results reported in ChEMBL document CHEMBL3091361, “Synthesis, structure elucidation and in vitro anticancer activities of novel derivatives of diethyl (2E)-2-[(2E)-(1-arylimidazolidin-2-ylidene)hydrazono]succinate and ethyl (4-oxo-8-aryl-4,6,7,8-tetrahydroimidazo[2,1-c][1,2,4]triazin-3-yl)acetate” (Bioorg Med Chem, 2013).

Experiments:
[1] = Selectivity ratio for human HeLa cells over human HSF cells after 72 hrs; format: ADME, cell-based; conditions: HeLa cells versus HSF cells
[2] = Selectivity ratio for human HeLa cells over human HSF cells after 48 hrs; format: ADME, cell-based; conditions: HeLa cells versus HSF cells
[3] = Selectivity ratio for human HeLa cells over human HSF cells after 24 hrs; format: ADME, cell-based; conditions: HeLa cells versus HSF cells
[4] = Cytotoxicity against human HSF cells at 50 ug/ml by BrdU incorporation assay; format: cell-based; conditions: TDE = time-dependent effect
[5] = tested on: T47D; assay: Cytotoxicity against human T47D cells at 50 ug/ml after 72 hrs by BrdU incorporation assay relative to control; format: functional; conditions: read-out: GI
[6] = tested on: T47D; assay: Cytotoxicity against human T47D cells at 50 ug/ml after 48 hrs by BrdU incorporation assay relative to control; format: functional; conditions: read-out: GI
[7] = tested on: T47D; assay: Cytotoxicity against human T47D cells at 50 ug/ml after 24 hrs by BrdU incorporation assay relative to control; format: functional; conditions: read-out: GI
[8] = tested on: HeLa; assay: Cytotoxicity against human HeLa cells at 50 ug/ml after 72 hrs by BrdU incorporation assay relative to control; format: functional; conditions: read-out: GI
[9] = tested on: HeLa; assay: Cytotoxicity against human HeLa cells at 50 ug/ml after 48 hrs by BrdU incorporation assay relative to control; format: functional; conditions: read-out: GI
[10] = tested on: HeLa; assay: Cytotoxicity against human HeLa cells at 50 ug/ml after 24 hrs by BrdU incorporation assay relative to control; format: functional; conditions: read-out: GI
[11] = Cytotoxicity against human MM1S cells at 50 ug/ml after 72 hrs by BrdU incorporation assay relative to control; format: functional; conditions: MM1.S, read-out: GI
[12] = Cytotoxicity against human MM1S cells at 50 ug/ml after 48 hrs by BrdU incorporation assay relative to control; format: functional; conditions: MM1.S, read-out: GI
[13] = Cytotoxicity against human MM1S cells at 50 ug/ml after 24 hrs by BrdU incorporation assay relative to control; format: functional; conditions: MM1.S, read-out: GI
[14] = Cytotoxicity against human MM1R cells at 50 ug/ml after 72 hrs by BrdU incorporation assay relative to control; format: functional; conditions: MM.1R, read-out: GI
[15] = Cytotoxicity against human MM1R cells at 50 ug/ml after 48 hrs by BrdU incorporation assay relative to control; format: functional; conditions: MM.1R, read-out: GI
[16] = Cytotoxicity against human MM1R cells at 50 ug/ml after 24 hrs by BrdU incorporation assay relative to control; format: functional; conditions: MM.1R, read-out: GI
[17] = Cytotoxicity against human HSF cells at 50 ug/ml after 72 hrs by BrdU incorporation assay relative to control; format: cell-based; conditions: read-out: GI
[18] = Cytotoxicity against human HSF cells at 50 ug/ml after 48 hrs by BrdU incorporation assay relative to control; format: cell-based; conditions: read-out: GI
[19] = Cytotoxicity against human HSF cells at 50 ug/ml after 24 hrs by BrdU incorporation assay relative to control; format: cell-based; conditions: read-out: GI
[20] = Toxicity in ip dosed albino-Swiss mouse; format: organism-based; conditions: in vivo
[21] = Selectivity ratio for human RPMI8226 cells over human HSF cells; format: ADME, cell-based, RPMI-8226; conditions: RPMI8226 cells versus HSF cells
[22] = Selectivity ratio for human T47D cells over human HSF cells after 72 hrs; format: ADME, cell-based; conditions: T47D cells versus HSF cells

In the case of `O=c1c(-c2ccco2)nnc2n1CCN2c1c(Cl)cccc1Cl`, the selectivity ratio at 72 h [1] is reported as over 6, the selectivity ratio at 48 h [2] is reported as over 5 and the selectivity ratio at 24 h [3] is reported as 8.

For `CCOC(=O)Cc1nnc2n(c1=O)CCN2c1ccc(Cl)cc1`, the Activity [4] was “tde”, the inhibition of growth at 50 µg/mL [5] was 50% and the inhibition of growth at 50 µg/mL [6] was 50%. It also gave an inhibition of growth at 50 µg/mL [7] of 50%, an inhibition of growth at 50 µg/mL [8] of 40% and an inhibition of growth at 50 µg/mL [9] of 30%. The inhibition of growth at 50 µg/mL [10] was 20%, the inhibition of growth at 50 µg/mL [11] was 90% and the inhibition of growth at 50 µg/mL [12] was 75%. The inhibition of growth at 50 µg/mL [13] was 45%, the inhibition of growth at 50 µg/mL [14] was 90% and the inhibition of growth at 50 µg/mL [15] was 85%. For the same compound, the inhibition of growth at 50 µg/mL [16] was 80%, the inhibition at 72 h, 50 ug/ml [17] was 80% and the inhibition at 48 h, 50 ug/ml [18] was 75%. For the same compound, the inhibition at 24 h, 50 ug/ml [19] was 50%.

For `COc1ccc(N2CCn3c2nnc(-c2ccccc2)c3=O)cc1`, the LD50 [20] was over 2000 mg/kg and the selectivity ratio [21] was 1.7.

With `COc1ccccc1N1CCn2c1nnc(-c1ccco1)c2=O` the selectivity ratio at 72 h [22] was 14 and the selectivity ratio at 72 h [1] was 16.

`O=c1c(-c2ccco2)nnc2n1CCN2c1ccccc1Cl` gave a selectivity ratio at 72 h [1] of 5, a selectivity ratio at 48 h [2] of 4 and a selectivity ratio at 24 h [3] of 8.
